In US11254663B2 (BRISTOL-MYERS SQUIBB COMPANY, priority 2019, dated 2022):
Like-named read-outs stand apart in the source and are kept apart here.

Target: FXR (Homo sapiens (Human), UniProt Q96RI1)
Assay: transient human FXR/Gal4-luciferase reporter assay
Assay type: cell-based
Procedure, shortened: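 HEK293 cells stably carrying a 5×Gal4 response element–firefly luciferase reporter were transiently transfected overnight with a Gal4 DBD–human FXR LBD fusion plasmid. Compound was added in DMSO and cells were incubated overnight at 37 °C, 5% CO2. Activity was read as Steady-Glo luminescence.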

[1] = Gal4-hFXR fusion construct, HEK293 reporter cells, response relative to 8 μM GW-4064

Sequence of FXR (Q96RI1 262-486): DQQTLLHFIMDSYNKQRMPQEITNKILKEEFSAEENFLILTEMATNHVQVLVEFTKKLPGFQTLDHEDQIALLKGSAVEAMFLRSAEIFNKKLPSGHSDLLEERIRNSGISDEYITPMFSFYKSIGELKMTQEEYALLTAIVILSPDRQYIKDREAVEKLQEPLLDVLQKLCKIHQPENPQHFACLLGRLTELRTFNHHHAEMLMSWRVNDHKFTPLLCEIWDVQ

Row | SMILES | EC50 | EC50 [1]
1 | CC(C)(C)c1nc(C23CCC(CN(C(=O)C45CC(F)(C4)C5)c4cc(-c5cnc6nc(C7CC7)sc6c5)ccn4)(CC2)CC3)no1 [Example 535, N-((4-(5-(tert-butyl)-1,2,4-oxadiazol-3-yl)bicyclo[2.2.2]octan-1-yl)methyl)-N-(4-(2-cyclopropylthiazolo[4,5-b]pyridin-6-yl)pyridin-2-yl)-3-fluorobicyclo[1.1.1]pentane-1-carboxamide] | 202 nM | 
2 | CC(C)S(=O)(=O)Nc1ccc(-c2cccc(N(CC34CCC(c5noc(C(C)(C)C)n5)(CC3)CC4)C(=O)C34CC(F)(C3)C4)c2)cc1 [Example 448, N-((4-(5-(tert-butyl)-1,2,4-oxadiazol-3-yl)bicyclo[2.2.2]octan-1-yl)methyl)-3-fluoro-N-(4′-((1-methylethyl)sulfonamido)-[1,1′-biphenyl]-3-yl)bicyclo[1.1.1]pentane-1-carboxamide] |  | 277 nM
3 | O=C(N(CC12CCC(c3nc(C4CC4)no3)(CC1)CC2)c1cccc(-c2nccc(C(F)(F)F)n2)c1)C12CC(F)(C1)C2 [Example 291, N-((4-(3-cyclopropyl-1,2,4-oxadiazol-5-yl)bicyclo[2.2.2]octan-1-yl)methyl)-3-fluoro-N-(3-(4-(trifluoromethyl)pyrimidin-2-yl)phenyl)bicyclo[1.1.1]pentane-1-carboxamide] |  | 439 nM
4 | O=C(N(CC12CCC(c3nc(C4CC4)no3)(CC1)CC2)c1cccc(-c2cccc(OC(F)(F)F)c2)c1)C12CC(F)(C1)C2 [Example 259, N-((4-(3-cyclopropyl-1,2,4-oxadiazol-5-yl)bicyclo[2.2.2]octan-1-yl)methyl)-3-fluoro-N-(3′-(trifluoromethoxy)-[1,1′-biphenyl]-3-yl)bicyclo[1.1.1]pentane-1-carboxamide] |  | 268 nM
5 | CC(C)(C)NC(=O)N(CC12CCC(c3noc(C(F)(F)F)n3)(CC1)CC2)c1cccc(-c2ccc(OC(F)F)cc2)c1 [Example 612, 3-(tert-butyl)-1-(4′-(difluoromethoxy)-[1,1′-biphenyl]-3-yl)-1-((4-(5-(trifluoromethyl)-1,2,4-oxadiazol-3-yl)bicyclo[2.2.2]octan-1-yl)methyl)urea] |  | 65 nM
6 | CC(C)(F)c1nc(C23CCC(CN(c4cccc(C5=CC6(C5)CC(C(C)(C)O)C6)c4)C(=O)[C@H]4C[C@](O)(C(F)(F)F)C4)(CC2)CC3)no1 (stereo partly drawn) [Example 590, (cis)-N-((4-(5-(2-fluoropropan-2-yl)-1,2,4-oxadiazol-3-yl)bicyclo[2.2.2]octan-1-yl)methyl)-3-hydroxy-N-(3-(6-(2-hydroxypropan-2-yl)spiro[3.3]hept-1-en-2-yl)phenyl)-3-(trifluoromethyl)cyclobutane-1-carboxamide] |  | 11 nM
7 | O=C(N(CC12CCC(c3nc(C4CC4)no3)(CC1)CC2)c1cccc(-c2ccc3c(c2)OC(F)(F)O3)c1)C12CC(F)(C1)C2 [Example 284, N-((4-(3-cyclopropyl-1,2,4-oxadiazol-5-yl)bicyclo[2.2.2]octan-1-yl)methyl)-N-(3-(2,2-difluorobenzo[d][1,3]dioxol-5-yl)phenyl)-3-fluorobicyclo[1.1.1]pentane-1-carboxamide] |  | 233 nM
8 | N#CC1(c2ccc(-c3cccc(N(CC45CCC(c6nc(C7CC7)no6)(CC4)CC5)C(=O)C45CC(F)(C4)C5)c3)cc2)CC1 [Example 279, N-(4′-(1-cyanocyclopropyl)-[1,1′-biphenyl]-3-yl)-N-((4-(3-cyclopropyl-1,2,4-oxadiazol-5-yl)bicyclo[2.2.2]octan-1-yl)methyl)-3-fluorobicyclo[1.1.1]pentane-1-carboxamide] |  | 125 nM
9 | COc1cc(-c2cccc(N(CC34CCC(c5nnc(C)s5)(CC3)CC4)C(=O)C3CCCC3)c2)ccn1 [Example 233, N-(3-(2-methoxypyridin-4-yl)phenyl)-N-((4-(5-methyl-1,3,4-thiadiazol-2-yl)bicyclo[2.2.2]octan-1-yl)methyl)cyclopentanecarboxamide] |  | 1100 nM
10 | Cc1nc2ccc(-c3cccc(N(CC45CCC(c6nc(C7CC7)no6)(CC4)CC5)C(=O)C45CC(F)(C4)C5)c3)cn2n1 [Example 324, N-((4-(3-cyclopropyl-1,2,4-oxadiazol-5-yl)bicyclo[2.2.2]octan-1-yl)methyl)-3-fluoro-N-(3-(2-methyl-[1,2,4]triazolo[1,5-a]pyridin-6-yl)phenyl)bicyclo[1.1.1]pentane-1-carboxamide] |  | 250 nM
11 | O=C(N(CC12CCC(c3nc(C(F)F)no3)(CC1)CC2)c1cccc(-c2ccc(OC(F)F)cc2)c1)C12CC(F)(C1)C2 [Example 468, N-(4′-(difluoromethoxy)-[1,1′-biphenyl]-3-yl)-N-((4-(3-(difluoromethyl)-1,2,4-oxadiazol-5-yl)bicyclo[2.2.2]octan-1-yl)methyl)-3-fluorobicyclo[1.1.1]pentane-1-carboxamide] | 184 nM | 
12 | COc1ncc(-c2cccc(N(CC34CCC(c5noc(C6(C)CC6)n5)(CC3)CC4)C(=O)C34CC(F)(C3)C4)c2)cn1 [Example 400, 3-fluoro-N-(3-(2-methoxypyrimidin-5-yl)phenyl)-N-((4-(5-(1-methylcyclopropyl)-1,2,4-oxadiazol-3-yl)bicyclo[2.2.2]octan-1-yl)methyl)bicyclo[1.1.1]pentane-1-carboxamide] |  | 51 nM
13 | CC(C)(C)c1nc(C23CCC(CN(C(=O)C4CC(O)(C(F)(F)F)C4)c4cccc(-c5ccc(NS(C)(=O)=O)cc5)c4)(CC2)CC3)no1 [Example 513, (1S,3S)—N-((4-(5-(tert-butyl)-1,2,4-oxadiazol-3-yl)bicyclo[2.2.2]octan-1-yl)methyl)-3-hydroxy-N-(4′-(methylsulfonamido)-[1,1′-biphenyl]-3-yl)-3-(trifluoromethyl)cyclobutane-1-carboxamide] |  | 922 nM
14 | CCOc1ccc(-c2ccnc(N(CC34CCC(c5noc(C(C)(C)C)n5)(CC3)CC4)C(=O)C34CC(F)(C3)C4)c2)cn1 [Example 536, N-((4-(5-(tert-butyl)-1,2,4-oxadiazol-3-yl)bicyclo[2.2.2]octan-1-yl)methyl)-N-(6-ethoxy-[3,4′-bipyridin]-2′-yl)-3-fluorobicyclo[1.1.1]pentane-1-carboxamide] | 29 nM | 
15 | CC(C)(O)c1ccc(-c2cccc(N(CC34CCC(c5noc(C(F)(F)F)n5)(CC3)CC4)C(=O)NCC3CC4(CC4)C3)c2)cc1 [Example 614, 1-(4′-(2-hydroxypropan-2-yl)-[1,1′-biphenyl]-3-yl)-3-(spiro[2.3]hexan-5-ylmethyl)-1-((4-(5-(trifluoromethyl)-1,2,4-oxadiazol-3-yl)bicyclo[2.2.2]octan-1-yl)methyl)urea] |  | 171 nM
16 | O=C(C1CC(O)(C(F)(F)F)C1)N(CC12CCC(C(=O)NS(=O)(=O)C3CC3)(CC1)CC2)c1cccc(-c2ccc(OC(F)F)cc2)c1 (stereo not drawn) [Example 638, N-(cyclopropylsulfonyl)-4-(((cis)-N-(4′-(difluoromethoxy)-[1,1′-biphenyl]-3-yl)-3-hydroxy-3-(trifluoromethyl)cyclobutane-1-carboxamido)methyl)bicyclo[2.2.2]octane-1-carboxamide] |  | 2000 nM
17 | O=C(N(CC12CCC(c3nc(C4CC4)no3)(CC1)CC2)c1cccc(-c2cccc(OC(F)(F)C(F)F)c2)c1)C12CC(F)(C1)C2 [Example 299, N-((4-(3-cyclopropyl-1,2,4-oxadiazol-5-yl)bicyclo[2.2.2]octan-1-yl)methyl)-3-fluoro-N-(3′-(1,1,2,2-tetrafluoroethoxy)-[1,1′-biphenyl]-3-yl)bicyclo[1.1.1]pentane-1-carboxamide] |  | 660 nM
